Results as given in paper PMC6811539, “Minute-scale persistence of a GPCR conformation state triggered by non-cognate G protein interactions primes signaling” (Nature Communications, 2019).

Tests used:
[1] = test system: β2-AR-Sp SPASM sensor; assay: ΔFRET assay of β2-AR activation on native membranes with β2-AR-Sp SPASM sensor; type: biochemical, human; set-up: mean ΔFRET: unit of the concentration uncertain; settings: for mean ΔFRET: SuppFig 3c
Description: Membranes were prepared following a published protocol[56] from HEK293T cells transiently transfected with the appropriate DNA (β2-AR-mCherry, β2-mCerulean, V1AR-mCherry, β2-AR-ICL3 or β2-AR-Sp). Cells were collected in culture medium and washed twice with PBS by centrifugation (300 × g, 3 min, ambient temperature). Cell pellets were incubated with an ice-cold hypotonic buffer (solution A: 10 mM HEPES, 1 mM EGTA, pH 7.2) for 30 min on ice. Cells in solution A were lysed gently (30 strokes) in a chilled Dounce homogenizer in the presence of 1.5 μg/mL aprotinin, 1.5 μg/mL leupeptin, 5 μg/mL phenylmethylsulfonyl fluoride (PMSF) and 1 mM dithiothreitol (DTT). Nuclei and intact cells were eliminated by centrifugation at 1000 × g, 5 min, 4 °C. All subsequent centrifugation steps were performed in a TLA100.4 rotor at 135,000 × g, 30 min, 4 °C. Native membranes were washed with 20 mM HEPES, 100 mM NaCl, 5 mM MgCl2, 100 μM GDP in the presence of 1.5 μg/mL aprotinin, 1.5 μg/mL leupeptin, 5 μg/mL PMSF, and 1 mM DTT, and were stored in the same buffer with 12% sucrose. For experiments to monitor Gα peptide–GPCR interactions using ΔFRET response, the native β2-AR-Sp sensor-containing membranes were washed in buffer containing 20 mM HEPES, 100 mM NaCl, 45 mM KCl, 5 mM MgCl2, and 100 μM GDP, and were stored in sucrose (12% w/v)-supplemented wash buffer.
Native membranes were collected from HEK293T cells expressing either the β2-AR-Sp SPASM sensor or the β2-AR-ICL3 conformational sensor. Frozen membranes were thawed and handled on ice. The membranes were resuspended by sonication to a concentration of 100 nM sensor (1 × 10^6 mCer cps) in 20 mM HEPES, 100 mM NaCl, 45 mM KCl, 5 mM MgCl2, pH 7.4 (ΔFRET buffer minus Ca^2+) in the presence of 1.5 μg/mL aprotinin, 1.5 μg/mL leupeptin, and 5 μg/mL PMSF. Indicated peptides were added to 30 μM (50 μM for PC-Qp) in a sample volume of 1 mL. The sample was aliquoted as 90 μl into ten replicate tubes—five labeled ISO and five buffer. Agonist solution (ISO) containing 1 mM Isoproterenol and 1 mM ascorbic acid was prepared in ΔFRET buffer minus Ca^2+. […]

[2] = target: T1, β2-AR-mCer (Homo sapiens, UniProt P07550); assay: competition pull-down assay, displacement of PC-Qp (fragments) from β2-AR-mCer membranes; type: binding; settings: PC-Qp 50 μM; thirty seconds after UV irradiation
T1 construct: expressed in transfected cells; host or cells: native membranes of transiently transfected HEK293T cells
Description: Native membranes were prepared from cells expressing β2-mCer and were stored in sucrose-supplemented buffer A as described above (Membrane preparations). Membranes were sonicated (3× bursts, 15 s with 1 min pauses) and resuspended in ΔFRET buffer minus Ca^2+ to a concentration of 10 nM receptor based on fluorescence counts. bioQp (30 μM)/30 μM bioQp + 30 μM Qp/30 μM bioQp + 50 μM Qp, and 100 μM isoproterenol were added and mixed for 5 min. Samples were split into duplicates, one of which was not manipulated in any way to obtain the total receptor counts. To the other tube, 20 μl of 0.4 mg/ml streptavidin-coated magnetic beads were added, mixed, and precipitated using a Neodymium disc magnet N52 (20 × 40 mm). Supernatant was removed to a fresh micro-centrifuge tube to monitor fluorescence of receptors not bound to the beads. Percentage of receptors bound to the beads was calculated by subtracting the unbound from the total (duplicate). The experiment was repeated with UV exposure for 2 min, followed by the addition and pulldown using the magnetic beads.

DTENIRFVFAAVKDTILQLNLKE(Anp)NLV [PC-Qp, photocleavable Qp, Y356 replaced by Anp]
mean ΔFRET ([1]; PCQp (30 µM)): 0.018 | mean ΔFRET ([1]; PCQp (50 µM)): 0.024 | duration of sustained FRET response after peptide removal ([1]; β2-AR-Sp sensor, ISO 100 μM, depletion (bioQp) or photocleavage (PC-Qp)): 120 s | competition with bioQp for receptor binding [2]: no longer competes with bioQp for interaction with the receptor
